Values joined by “and” are separate entries in the source; they are usually repeats but may differ in a detail not shown here. Equal values may be shown once.
What was measured:
CpomOrco^Q417H = CpomOrco^Q417H (Cydia pomonella, UniProt H9A5M2, Q417H); experiment: Calcium imaging (Fluo-4) of HEK293A cells transfected with mutagenized CpomOrco^Q417H, VUAA1 stimulation; format: cell-based; conditions: for EC50: EC50, HEK293A; for Hill coefficient / maximum response (Hill fit of calcium response amplitudes): HEK293A
Sequence of CpomOrco^Q417H (H9A5M2 entry or part of it Q417H): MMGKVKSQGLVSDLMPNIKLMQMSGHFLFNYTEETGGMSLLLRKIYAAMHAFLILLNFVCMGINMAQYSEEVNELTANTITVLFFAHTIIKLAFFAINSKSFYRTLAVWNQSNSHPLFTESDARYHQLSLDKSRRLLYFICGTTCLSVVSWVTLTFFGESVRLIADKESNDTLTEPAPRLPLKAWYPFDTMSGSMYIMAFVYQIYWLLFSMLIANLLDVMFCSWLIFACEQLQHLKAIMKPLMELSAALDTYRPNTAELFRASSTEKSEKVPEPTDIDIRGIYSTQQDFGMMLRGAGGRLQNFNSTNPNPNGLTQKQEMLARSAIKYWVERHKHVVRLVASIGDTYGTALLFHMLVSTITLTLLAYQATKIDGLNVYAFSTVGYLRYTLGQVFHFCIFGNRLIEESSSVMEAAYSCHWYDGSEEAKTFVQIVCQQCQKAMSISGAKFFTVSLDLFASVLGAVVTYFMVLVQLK
Protocol: HEK293 cells lines (HEK293A/HEK293T) were grown in HEK cell media [Dulbecco's modified Eagle's medium containing 10% fetal bovine serum (MP Biomedicals, Solon, OH, USA), 2.0 mM L-glutamine, and 100 µg/mL penicillin/streptomycin (Invitrogen)] at 37 °C and 5% CO2. To test transient expression of wild type CpomOrco and CpomOrco^Q417H variant for calcium imaging and patch-clamp recording, 35-mm petri dishes containing semi-confluent HEK293A cells were transiently transfected. Cells were transfected with 0.6 µg of pcDNA40-DEST carrying the coding sequence of the CpomOrco variant (depending on the experiments). To report expression for calcium imaging experiments, 0.6 µg of a separate plasmid DNA [pEBFP2-Nuc, a gift from Robert Campbell (Addgene plasmid # 1489352)] carrying the coding sequence for a blue fluorescent protein (EBFP) was co-transfected. To report expression in patch-clamp recordings, 1.0 µg of a separate plasmid DNA (pXOOM, Clontech, Mountain View, CA, USA) carrying the coding sequence for a green fluorescent protein (GFP) was co-transfected. Expressions of fluorescent reporter genes were under the regulation of the same promoter for Cpom-genes (CMV). For specific experiments, co-transfections were conducted combining an additional 1.2 µg of pcDNA40-DEST/CpomOR3 or pcDNA40-DEST/CpomOR6a, as we previously described. Co-transfections with CpomOR3 were performed for dose–response experiments to pear ester: CpomOR3 was co-expressed with CpomOrco variants by the use of HEK293T (Fig. 3b); given the reported functional co-expression data of the CpomOrco + OR3 heteromers by the use of these specific cells. In brief, transfection DNAs were dissolved in 100 µL sterile DMEM, mixed with 3.0 µL Calfectin (SignaGen, Rockville, MD, USA) following the recommended protocol. Transfections were conducted overnight for up to 18 h, HEK cell media was replaced with 2.0 mL fresh media to incubate cells at 37 °C for up to 6–8 h, at which point part of the cell culture was spread in the middle of a 35-mm plate as individual cells or small clusters and rinsed at the sides with 2.0 mL fresh HEK media. After splitting, cells were allowed to recover for at least 1 day prior to calcium imaging.
Activation of HEK293 cells transfected with CpomOrco variants was tested using the same procedures we previously described. Petri dishes were incubated for 1 h at room temperature in 1.0 mL HEK Ca^++ Ringer (mM: 140 NaCl, 5.0 KCl, 2.0 CaCl2, 10 HEPES, pH 7.4) containing the fluorescent calcium indicator Fluo-4AM (Invitrogen) at 5–15 µM prepared with 0.2–0.06% Pluronic F-127 (Invitrogen). To monitor intracellular pH, HEK293A cells were loaded with 10.0 µL BCECF dye (Anaspec, Fremont, CA).
As reported in Cattaneo et al.[14], the buffer was removed after incubation, cells were rinsed with 4.0 mL fresh HEK Ca^++ Ringer and placed on the stage of an inverted microscope (Olympus IX-71, Olympus Corp., Tokyo, Japan) equipped with a cooled CCD camera (ORCA R2, Hamamatsu, Hamamatsu City, Japan). Cells were continuously superfused with Ca^++ Ringer using two gravity fed perfusion contours. The […] contour washing the cells (~ 250 µL/min) was switched rapidly to the stimulus contour using a multi-channel rapid solution changer (RSC-160, Bio-Logic, Claix, France) under the software control of Clampex 9 (Molecular Devices, Sunnyvale, CA, USA).
Fluorescence imaging was performed using settings optimized for Imaging Workbench 6 software (INDEC BioSystems, Santa Clara, CA, USA)[14]. The non-responsive cells were not included in these analyses. Each cell was assigned a region of interest (ROI) and changes in fluorescence intensity within each ROI were measured and expressed as the fractional change in fluorescence intensity (dF). Stored time series image stacks were analysed off-line using Imaging Workbench 6, Clampfit 10.5 (Molecular Devices) and SigmaPlot 11 (Systat Software Inc., San Jose, CA, USA). Dose–response curves were approximated using Hill equation. […]

CpomOrco^Q417H+OR6a = experiment: VUAA1 responsiveness (Fluo4 +) of HEK293A cells co-transfected with CpomOrco^Q417H and CpomOR6a; format: cell-based, Cydia pomonella; conditions: for Fluo4 + cells, %: of bright field cells
Protocol: HEK293 cells lines (HEK293A/HEK293T) were grown in HEK cell media [Dulbecco's modified Eagle's medium containing 10% fetal bovine serum (MP Biomedicals, Solon, OH, USA), 2.0 mM L-glutamine, and 100 µg/mL penicillin/streptomycin (Invitrogen)] at 37 °C and 5% CO2. To test transient expression of wild type CpomOrco and CpomOrco^Q417H variant for calcium imaging and patch-clamp recording, 35-mm petri dishes containing semi-confluent HEK293A cells were transiently transfected. Cells were transfected with 0.6 µg of pcDNA40-DEST carrying the coding sequence of the CpomOrco variant (depending on the experiments). To report expression for calcium imaging experiments, 0.6 µg of a separate plasmid DNA [pEBFP2-Nuc, a gift from Robert Campbell (Addgene plasmid # 1489352)] carrying the coding sequence for a blue fluorescent protein (EBFP) was co-transfected. To report expression in patch-clamp recordings, 1.0 µg of a separate plasmid DNA (pXOOM, Clontech, Mountain View, CA, USA) carrying the coding sequence for a green fluorescent protein (GFP) was co-transfected. Expressions of fluorescent reporter genes were under the regulation of the same promoter for Cpom-genes (CMV). For specific experiments, co-transfections were conducted combining an additional 1.2 µg of pcDNA40-DEST/CpomOR3 or pcDNA40-DEST/CpomOR6a, as we previously described. […]
Fluorescence imaging was performed using settings optimized for Imaging Workbench 6 software (INDEC BioSystems, Santa Clara, CA, USA)[14]. […] Each cell was assigned a region of interest (ROI) and changes in fluorescence intensity within each ROI were measured and expressed as the fractional change in fluorescence intensity (dF). Stored time series image stacks were analysed off-line using Imaging Workbench 6, Clampfit 10.5 (Molecular Devices) and SigmaPlot 11 (Systat Software Inc., San Jose, CA, USA). […]

[1] = after 30 min incubation at low pHe = 4.7

Structure (SMILES): CCc1ccc(NC(=O)CSc2nnc(-c3cccnc3)n2CC)cc1 [VUAA1, acetamide,N-(4-ethylphenyl)-2-[[4-ethyl-5-(3-pyridinyl)-4H-1,2,4-triazol-3-yl]thio]-]
- EC50 (CpomOrco^Q417H; [1]): ~263 µM
- EC50 (CpomOrco^Q417H; control pH conditions (pH 7.4), Hill fit): ~261 µM and ~262 µM
- Hill coefficient (CpomOrco^Q417H; [1]): ~ 2.2 ± 0.5
- maximum response (Hill fit of calcium response amplitudes) (CpomOrco^Q417H; after 30 min incubation at low pHe = 4.7, n = 63, constraints applied to fit): ~ 1.8 ± 0.2 ∆F and 1.8 ∆F
- Hill coefficient (CpomOrco^Q417H; control pH conditions (pH 7.4)): ~ 2.1 ± 1.9
- maximum response (Hill fit of calcium response amplitudes) (CpomOrco^Q417H; control pH conditions (pH 7.4), N = 94 cells): ~ 3.9 ∆F and ~ 3.9 ± 1.3 ∆F and 3.9 ∆F
- Fluo4 + cells, % (CpomOrco^Q417H+OR6a; 800 µM VUAA1, Experiment 3, CpomOrcoQ417H+OR6a): 8,41%
- Fluo4 + cells, % (CpomOrco^Q417H+OR6a; 800 µM VUAA1, Experiment 4, CpomOrcoQ417H+OR6a): 10,33%
- percentage of VUAA1 sensitive cells (CpomOrco^Q417H+OR6a; 800 µM VUAA1, HEK293A co-transfected with CpomOrco^Q417H, CpomOR6a and EBFP, range of two experiments): 8.41–10.33%

Reference: PMC7887336, “Altered functional properties of the codling moth Orco mutagenized in the intracellular loop-3” (Scientific Reports, 2021)
